Results on one compound are retold here after article PMC6199744, “Development of Chemical Proteomics for the Folateome and Analysis of the Kinetoplastid Folateome” (ACS Infectious Diseases, 2018).

Type in all cases: binding
The target of experiment [1] is T1, HeLa cell extract proteins (Homo sapiens, UniProt O95816).
T1 construct: endogenous in cells; host or cells: HeLa cell extract
The conditions noted are these: captured protein BAG2; HeLa.

The target in experiment [2] is T2, HeLa cell extract proteins (Homo sapiens, UniProt P62979).
T2 construct: endogenous in cells; host or cells: HeLa cell extract
The conditions noted are these: protein RPS27A; HeLa.

For experiment [3], the target named is T3, HeLa cell extract proteins (Homo sapiens, UniProt P11177).
T3 construct: endogenous in cells; host or cells: HeLa cell extract
T3 sequence (P11177 31-359): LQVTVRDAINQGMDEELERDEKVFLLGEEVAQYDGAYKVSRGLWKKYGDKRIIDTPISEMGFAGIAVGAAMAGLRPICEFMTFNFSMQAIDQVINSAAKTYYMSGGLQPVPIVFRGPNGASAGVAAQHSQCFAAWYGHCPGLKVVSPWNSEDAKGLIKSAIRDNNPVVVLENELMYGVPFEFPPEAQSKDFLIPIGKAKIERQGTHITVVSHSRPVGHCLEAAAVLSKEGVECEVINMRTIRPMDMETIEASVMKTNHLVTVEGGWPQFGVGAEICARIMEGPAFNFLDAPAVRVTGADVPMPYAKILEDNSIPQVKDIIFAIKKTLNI
Particulars: protein PDHB; HeLa.

Experiment [4] addresses T4, HeLa cell extract proteins (Homo sapiens, UniProt P16615).
T4 construct: endogenous in cells; host or cells: HeLa cell extract
The conditions noted are these: HeLa; protein ATP2A2.

In experiment [5] the target is T5, HeLa cell extract proteins (Homo sapiens, UniProt P20618).
T5 construct: endogenous in cells; host or cells: HeLa cell extract
T5 sequence (P20618 29-241): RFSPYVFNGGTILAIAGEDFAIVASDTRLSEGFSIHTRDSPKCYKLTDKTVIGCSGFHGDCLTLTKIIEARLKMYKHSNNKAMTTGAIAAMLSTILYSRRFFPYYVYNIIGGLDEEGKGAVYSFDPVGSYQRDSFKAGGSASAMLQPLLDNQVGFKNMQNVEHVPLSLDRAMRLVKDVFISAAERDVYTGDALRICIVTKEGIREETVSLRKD
Particulars: protein PSMB1; HeLa.

The target of experiment [6] is T6, HeLa cell extract proteins (Homo sapiens, UniProt Q709F0).
T6 construct: endogenous in cells; host or cells: HeLa cell extract
T6 sequence (Q709F0 1-780): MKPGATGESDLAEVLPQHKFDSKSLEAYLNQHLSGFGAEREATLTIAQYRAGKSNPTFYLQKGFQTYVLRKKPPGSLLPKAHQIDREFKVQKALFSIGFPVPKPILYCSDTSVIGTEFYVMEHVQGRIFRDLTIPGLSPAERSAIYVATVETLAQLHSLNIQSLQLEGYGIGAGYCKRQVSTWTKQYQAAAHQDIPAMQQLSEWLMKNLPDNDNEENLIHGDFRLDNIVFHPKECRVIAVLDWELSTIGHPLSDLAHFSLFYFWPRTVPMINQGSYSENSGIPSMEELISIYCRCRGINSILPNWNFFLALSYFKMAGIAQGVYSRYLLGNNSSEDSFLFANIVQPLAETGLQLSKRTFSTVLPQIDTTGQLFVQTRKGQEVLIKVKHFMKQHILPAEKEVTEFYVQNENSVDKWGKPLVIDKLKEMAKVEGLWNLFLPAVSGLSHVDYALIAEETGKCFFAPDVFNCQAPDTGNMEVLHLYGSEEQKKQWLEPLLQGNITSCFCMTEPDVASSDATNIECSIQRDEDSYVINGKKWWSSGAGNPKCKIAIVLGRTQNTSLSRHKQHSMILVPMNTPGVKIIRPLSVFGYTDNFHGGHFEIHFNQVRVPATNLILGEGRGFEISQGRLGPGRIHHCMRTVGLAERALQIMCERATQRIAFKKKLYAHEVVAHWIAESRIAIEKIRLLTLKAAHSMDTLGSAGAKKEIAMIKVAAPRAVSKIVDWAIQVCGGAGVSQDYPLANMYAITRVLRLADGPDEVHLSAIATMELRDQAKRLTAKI
Particulars: captured protein ACAD11; HeLa.

Experiment [7] addresses T7, HeLa cell extract proteins (Homo sapiens, UniProt P25788).
T7 construct: endogenous in cells; host or cells: HeLa cell extract
T7 sequence (P25788 1-255): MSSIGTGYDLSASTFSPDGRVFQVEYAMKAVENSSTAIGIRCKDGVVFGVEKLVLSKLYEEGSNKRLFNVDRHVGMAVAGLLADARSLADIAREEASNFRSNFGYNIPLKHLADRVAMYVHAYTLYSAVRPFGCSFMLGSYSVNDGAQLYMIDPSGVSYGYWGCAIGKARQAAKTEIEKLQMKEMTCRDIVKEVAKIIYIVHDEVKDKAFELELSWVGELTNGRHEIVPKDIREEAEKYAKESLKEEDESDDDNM
Particulars: protein PSMA3; HeLa.

For experiment [8], the target named is T8, HeLa cell extract proteins (Homo sapiens, UniProt Q7Z3U7).
T8 construct: endogenous in cells; host or cells: HeLa cell extract
T8 sequence (Q7Z3U7 whole entry): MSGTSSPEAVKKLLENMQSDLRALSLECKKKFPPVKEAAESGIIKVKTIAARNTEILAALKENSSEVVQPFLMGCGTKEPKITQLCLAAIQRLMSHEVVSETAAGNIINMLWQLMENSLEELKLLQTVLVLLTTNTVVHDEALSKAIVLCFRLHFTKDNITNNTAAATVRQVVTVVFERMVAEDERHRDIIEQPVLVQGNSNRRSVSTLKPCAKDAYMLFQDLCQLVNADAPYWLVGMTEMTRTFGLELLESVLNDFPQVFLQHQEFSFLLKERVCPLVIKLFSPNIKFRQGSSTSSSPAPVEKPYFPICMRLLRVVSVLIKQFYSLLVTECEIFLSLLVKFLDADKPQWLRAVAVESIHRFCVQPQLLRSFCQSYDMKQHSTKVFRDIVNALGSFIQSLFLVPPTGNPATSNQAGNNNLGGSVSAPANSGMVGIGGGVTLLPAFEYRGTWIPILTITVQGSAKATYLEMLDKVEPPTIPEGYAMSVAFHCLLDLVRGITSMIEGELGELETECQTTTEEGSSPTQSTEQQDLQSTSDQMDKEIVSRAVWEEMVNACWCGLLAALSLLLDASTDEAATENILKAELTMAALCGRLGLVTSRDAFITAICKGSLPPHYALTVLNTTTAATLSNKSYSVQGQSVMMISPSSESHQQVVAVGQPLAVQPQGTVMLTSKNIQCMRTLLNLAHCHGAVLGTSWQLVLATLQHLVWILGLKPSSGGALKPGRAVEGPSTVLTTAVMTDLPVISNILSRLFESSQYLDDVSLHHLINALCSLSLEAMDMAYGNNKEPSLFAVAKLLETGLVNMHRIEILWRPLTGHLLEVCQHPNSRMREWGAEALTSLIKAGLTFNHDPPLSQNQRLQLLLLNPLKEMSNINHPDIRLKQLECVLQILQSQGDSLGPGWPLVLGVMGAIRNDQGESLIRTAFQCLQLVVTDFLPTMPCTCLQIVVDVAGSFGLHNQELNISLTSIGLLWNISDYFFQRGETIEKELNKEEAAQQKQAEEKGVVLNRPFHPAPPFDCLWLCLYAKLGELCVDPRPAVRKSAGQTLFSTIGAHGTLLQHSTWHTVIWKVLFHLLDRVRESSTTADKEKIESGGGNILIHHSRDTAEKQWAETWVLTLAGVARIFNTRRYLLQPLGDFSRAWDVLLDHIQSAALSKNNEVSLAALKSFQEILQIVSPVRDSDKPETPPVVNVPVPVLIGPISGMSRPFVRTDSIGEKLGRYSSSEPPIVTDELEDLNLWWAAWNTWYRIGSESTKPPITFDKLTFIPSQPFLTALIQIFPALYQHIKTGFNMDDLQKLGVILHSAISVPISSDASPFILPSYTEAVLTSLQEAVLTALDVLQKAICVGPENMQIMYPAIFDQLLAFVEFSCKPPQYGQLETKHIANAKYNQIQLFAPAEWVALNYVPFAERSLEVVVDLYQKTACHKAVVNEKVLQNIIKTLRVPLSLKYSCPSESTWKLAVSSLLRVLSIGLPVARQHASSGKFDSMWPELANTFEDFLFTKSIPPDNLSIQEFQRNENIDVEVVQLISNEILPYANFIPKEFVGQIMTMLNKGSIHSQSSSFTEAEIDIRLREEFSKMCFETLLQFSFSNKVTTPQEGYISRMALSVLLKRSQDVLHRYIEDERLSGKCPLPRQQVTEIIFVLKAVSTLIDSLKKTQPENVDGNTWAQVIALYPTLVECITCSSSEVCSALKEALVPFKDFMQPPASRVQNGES
Particulars: HeLa; protein MON2.

For experiment [9], the target named is T9, HeLa cell extract proteins (Homo sapiens, UniProt Q6P1J9).
T9 construct: endogenous in cells; host or cells: HeLa cell extract
The conditions noted are these: protein CDC73; HeLa.

Experiment [10] has as its target T10, HeLa cell extract proteins (Homo sapiens, UniProt Q9Y679).
T10 construct: endogenous in cells; host or cells: HeLa cell extract
T10 sequence (Q9Y679 1-410): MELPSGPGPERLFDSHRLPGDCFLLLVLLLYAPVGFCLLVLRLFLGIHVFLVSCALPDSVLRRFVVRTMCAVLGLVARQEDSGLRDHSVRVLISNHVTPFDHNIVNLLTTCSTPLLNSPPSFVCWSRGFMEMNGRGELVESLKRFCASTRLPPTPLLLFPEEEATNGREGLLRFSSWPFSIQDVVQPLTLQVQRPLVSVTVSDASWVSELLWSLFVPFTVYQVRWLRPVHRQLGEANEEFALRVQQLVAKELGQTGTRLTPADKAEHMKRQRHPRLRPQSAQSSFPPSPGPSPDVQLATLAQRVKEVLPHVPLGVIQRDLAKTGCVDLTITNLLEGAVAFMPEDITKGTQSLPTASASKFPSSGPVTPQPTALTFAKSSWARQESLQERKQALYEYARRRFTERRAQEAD
The conditions noted are these: captured protein AUP1; HeLa.

Experiment [11] addresses T11, HeLa cell extract proteins (Homo sapiens, UniProt P35680).
T11 construct: endogenous in cells; host or cells: HeLa cell extract
Particulars: captured protein HNF1B; HeLa.

Experiment [12] deals with T12, HeLa cell extract proteins (Homo sapiens, UniProt P35080).
T12 construct: endogenous in cells; host or cells: HeLa cell extract
T12 sequence (P35080 1-140): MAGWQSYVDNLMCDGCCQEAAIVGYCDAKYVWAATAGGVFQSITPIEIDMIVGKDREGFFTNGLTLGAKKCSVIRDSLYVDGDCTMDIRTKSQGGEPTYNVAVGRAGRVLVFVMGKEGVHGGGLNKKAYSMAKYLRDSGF
Particulars: protein PFN2; HeLa.

The target of experiment [13] is T13, HeLa cell extract proteins (Homo sapiens, UniProt Q63HN8).
T13 construct: endogenous in cells; host or cells: HeLa cell extract
The conditions noted are these: protein KIAA1618; HeLa.

The structures appear in SMILES notation.

T4 sequence (P16615 whole entry): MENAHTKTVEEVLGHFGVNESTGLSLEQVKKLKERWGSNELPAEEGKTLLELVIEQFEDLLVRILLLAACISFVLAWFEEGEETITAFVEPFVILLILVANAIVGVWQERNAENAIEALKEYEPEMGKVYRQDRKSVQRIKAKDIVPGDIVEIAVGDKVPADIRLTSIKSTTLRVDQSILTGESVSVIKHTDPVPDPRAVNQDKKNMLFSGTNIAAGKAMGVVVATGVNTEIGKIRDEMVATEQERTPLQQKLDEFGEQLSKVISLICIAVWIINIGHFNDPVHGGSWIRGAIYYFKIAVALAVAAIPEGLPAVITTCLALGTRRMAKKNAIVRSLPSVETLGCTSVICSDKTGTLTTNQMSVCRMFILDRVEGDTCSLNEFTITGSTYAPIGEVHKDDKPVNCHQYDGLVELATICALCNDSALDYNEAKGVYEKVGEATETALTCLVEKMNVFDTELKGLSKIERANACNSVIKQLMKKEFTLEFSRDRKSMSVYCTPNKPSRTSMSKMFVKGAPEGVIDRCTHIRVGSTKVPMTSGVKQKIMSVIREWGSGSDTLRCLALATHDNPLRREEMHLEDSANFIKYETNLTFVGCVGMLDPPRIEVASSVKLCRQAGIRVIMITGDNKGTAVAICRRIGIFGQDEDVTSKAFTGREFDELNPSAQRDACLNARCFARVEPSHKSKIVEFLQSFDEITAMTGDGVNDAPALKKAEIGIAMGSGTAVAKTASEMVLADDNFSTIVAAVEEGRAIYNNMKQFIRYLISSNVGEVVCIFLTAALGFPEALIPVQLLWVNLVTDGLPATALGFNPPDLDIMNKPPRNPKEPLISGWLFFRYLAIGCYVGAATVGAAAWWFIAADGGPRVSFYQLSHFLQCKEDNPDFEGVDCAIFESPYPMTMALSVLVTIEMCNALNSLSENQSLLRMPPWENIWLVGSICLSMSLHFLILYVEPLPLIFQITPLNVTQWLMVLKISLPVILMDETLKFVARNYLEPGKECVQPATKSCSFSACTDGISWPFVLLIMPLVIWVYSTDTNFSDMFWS
T11 sequence (P35680 whole entry): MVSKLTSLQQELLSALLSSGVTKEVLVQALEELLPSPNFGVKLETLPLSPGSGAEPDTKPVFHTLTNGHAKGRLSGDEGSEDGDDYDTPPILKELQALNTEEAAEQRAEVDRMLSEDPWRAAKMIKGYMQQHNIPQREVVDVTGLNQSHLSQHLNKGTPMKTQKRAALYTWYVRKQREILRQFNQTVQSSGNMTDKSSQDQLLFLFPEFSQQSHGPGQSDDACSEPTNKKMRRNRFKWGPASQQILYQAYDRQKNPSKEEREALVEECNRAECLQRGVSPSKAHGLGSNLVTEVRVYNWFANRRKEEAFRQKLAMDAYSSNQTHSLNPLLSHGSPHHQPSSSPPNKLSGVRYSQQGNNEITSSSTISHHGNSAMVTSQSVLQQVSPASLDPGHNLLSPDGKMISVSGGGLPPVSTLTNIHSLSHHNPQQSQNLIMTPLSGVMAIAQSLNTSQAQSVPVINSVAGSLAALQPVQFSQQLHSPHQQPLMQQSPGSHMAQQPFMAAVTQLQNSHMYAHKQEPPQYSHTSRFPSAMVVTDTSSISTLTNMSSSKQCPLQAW
T1 sequence (O95816 whole entry): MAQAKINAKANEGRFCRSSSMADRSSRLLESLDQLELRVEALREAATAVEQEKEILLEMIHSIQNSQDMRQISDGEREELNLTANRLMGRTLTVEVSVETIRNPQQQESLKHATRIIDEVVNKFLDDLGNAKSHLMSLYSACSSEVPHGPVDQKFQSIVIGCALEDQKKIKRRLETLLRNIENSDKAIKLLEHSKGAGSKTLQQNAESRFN

Turning to `CCCCCCOc1cccc(Cc2cnc(N)nc2N)c1` [compound 2], the “fold changes relative to vehicle control” value in experiment [1] was found to be 1.15; in experiment [2], 1.5; in experiment [3], 0.38; in experiment [4], 1.12; in experiment [5], 1.28; in experiment [6] it was 0.77. Also, the “fold changes relative to vehicle control” value came to 1.27 in experiment [7]; 1.08 in experiment [8]; 1.08 in [9]; 1.25 in [10]; 1.01 in experiment [11]; 0.99 in experiment [12]. Besides, the “fold changes relative to vehicle control” value in experiment [13] was found to be 0.95.
